pIC50: −log10 of the molar value.
Experiments:
[1] = Inhibitory activity against Opioid receptor kappa1 binding to bovine striatal membrane
[2] = Inhibitory activity against Opioid receptor delta 1 binding to bovine striatal membrane

C[C@@]12Oc3c(O)ccc4c3[C@@]13CCN(CC1CC1)[C@H](C4)[C@]3(NC(=O)CSSCC(=O)N[C@@]13CCC(=O)[C@]4(C)Oc5c(O)ccc6c5[C@@]41CCN(CC1CC1)[C@@H]3C6)CCC2=O
pIC50 [1]: 8.11 | pIC50 [2]: 8.28

CN1CC[C@]23c4c5ccc(O)c4O[C@@]2(C)C(=O)CC[C@@]3(NC(=O)CSSCC(=O)N[C@@]23CCC(=O)[C@]4(C)Oc6c(O)ccc7c6[C@@]42CCN(C)C3C7)C1C5 [MET-TAMO and N-CPM-MET-TAMO analogue]
pIC50 [1]: 7.05 | pIC50 [2]: 7.28

Reference: BindingDB's records for doi:10.1016/0960-894X(95)00287-4 (1995)
